Experimental data from PMC2667100 (Molecular and cellular endocrinology, 2008).
Changes are numbered by the printed parent chain. Where two headings read alike, the source gives them in different places.

Key:
[1] = system: MCF-7 Tet-off 3β-HSD2 aromatase cells; experiment: Inhibition of DHEA-stimulated proliferation; format: cell-based, human; conditions: DHEA 5 nM, concentration-dependent
[2] = system: MCF-7 Tet-off 3β-HSD1 aromatase cells; experiment: Inhibition of DHEA-stimulated proliferation; format: cell-based, human; conditions: for fold higher affinity, 3β-HSD1 cells relative to 3β-HSD2 cells (IC50): ratio of proliferation IC50 values
purified human 3β-HSD1 [3] = biological target: T1, purified human 3β-HSD1 (Homo sapiens, UniProt P14060); experiment: Substrate and cofactor kinetics of the isomerase activity; format: biochemical; conditions: 27°C, pH 7.4
T1 sequence (P14060 whole entry): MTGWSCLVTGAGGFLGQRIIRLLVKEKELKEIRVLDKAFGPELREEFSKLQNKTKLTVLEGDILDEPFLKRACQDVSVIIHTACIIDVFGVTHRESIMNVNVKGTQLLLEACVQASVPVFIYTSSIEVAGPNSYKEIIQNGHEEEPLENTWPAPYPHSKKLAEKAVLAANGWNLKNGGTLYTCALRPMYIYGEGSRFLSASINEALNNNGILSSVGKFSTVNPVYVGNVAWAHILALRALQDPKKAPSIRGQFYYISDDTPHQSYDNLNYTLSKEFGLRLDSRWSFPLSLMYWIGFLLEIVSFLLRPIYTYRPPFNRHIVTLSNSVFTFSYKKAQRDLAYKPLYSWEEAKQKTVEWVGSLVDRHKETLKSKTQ

purified human 3β-HSD2 [4] = biological target: T2, purified human 3β-HSD2 (Homo sapiens, UniProt P26439); experiment: as above; format: biochemical; conditions: 27°C, pH 7.4
T2 sequence (P26439 1-372): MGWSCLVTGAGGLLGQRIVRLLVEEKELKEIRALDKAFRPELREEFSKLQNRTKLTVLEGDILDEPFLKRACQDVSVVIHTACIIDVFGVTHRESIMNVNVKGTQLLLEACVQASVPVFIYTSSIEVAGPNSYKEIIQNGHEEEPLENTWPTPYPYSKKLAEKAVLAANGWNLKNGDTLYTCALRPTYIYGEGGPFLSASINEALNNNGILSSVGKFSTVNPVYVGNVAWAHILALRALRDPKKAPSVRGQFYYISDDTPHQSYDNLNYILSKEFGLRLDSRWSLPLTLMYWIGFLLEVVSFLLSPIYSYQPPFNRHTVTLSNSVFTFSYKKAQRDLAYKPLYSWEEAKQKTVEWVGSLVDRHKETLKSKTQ

[5] = biological target: T3, purified human P195R-2 mutant of 3β-HSD2 (Homo sapiens, UniProt P26439, P195R); experiment: as above; format: biochemical; conditions: 27°C, pH 7.4
T3 sequence (P26439 1-372 P195R): T2 sequence (P26439 1-372) with P195R

purified human 3β-HSD1 [6] = biological target: T1, purified human 3β-HSD1; experiment: Inhibition kinetics of purified enzyme; format: biochemical
[7] = biological target: T3, purified human P195R-2 mutant of 3β-HSD2; experiment: Inhibition kinetics of purified enzyme; format: biochemical
purified human 3β-HSD2 [8] = biological target: T2, purified human 3β-HSD2; experiment: Inhibition kinetics of purified enzyme; format: biochemical; conditions: for mode of inhibition: Dixon analysis
[9] = system: MCF-7 Tet-off 3β-HSD2 aromatase cells; experiment: Stimulation of proliferation; format: cell-based, human; conditions: for stimulation of cell growth: no dox; for EC50: Homo sapiens, MCF7, 240 h, read-out: EC50, stimulation of growth
[10] = system: MCF-7 Tet-off 3β-HSD1 aromatase cells; experiment: Stimulation of proliferation; format: cell-based, human; conditions: for stimulation of cell growth: no dox; for EC50: Homo sapiens, MCF7, 240 h, read-out: EC50, stimulation of growth
[11] = biological target: T3, purified human P195R-2 mutant of 3β-HSD2; experiment: Substrate and cofactor kinetics of the 3β-HSD activity; format: biochemical
purified human 3β-HSD2 [12] = biological target: T2, purified human 3β-HSD2; experiment: as above; format: biochemical; conditions: 27°C, pH 7.4
[13] = system: MCF-7 Tet-off 3β-HSD1 and 3β-HSD2 aromatase cells; experiment: DHEA stimulation of proliferation, mean over both recombinant cell lines; format: cell-based; conditions: Homo sapiens, MCF7, read-out: mean EC50, stimulation of proliferation
purified human 3β-HSD1 [14] = biological target: T1, purified human 3β-HSD1; experiment: Substrate and cofactor kinetics of the 3β-HSD activity; format: biochemical; conditions: 27°C, pH 7.4
MCF-7 cells = experiment: Proliferation of MCF-7 cells in the absence of DHEA substrate; format: cell-based, human
[15] = 5-androstene-3,17-dione 20–100 μM, NADH 0.05 mM
[16] = DHEA 8.0 or 20.0 μM, NAD+ 0.2 mM, 27 °C, pH 7.4
[17] = NADH 0–50 μM, 5-androstene-3,17-dione 100 μM
[18] = read-out: Km, isomerase cofactor (allosteric activator), NADH 0–50 μM, 5-androstene-3,17-dione 100 μM
[19] = read-out: Km, 3β-HSD cofactor, NAD+ 10–200 μM, DHEA 100 μM

4-hydroxy-tamoxifen
effect on DHEA-stimulated proliferation [1]: decreases the DHEA-stimulated proliferation
effect on DHEA-stimulated proliferation ([2]; DHEA 5 nM, concentration-dependent): decreases the DHEA-stimulated proliferation

C[C@]12CCC(=O)CC1=CC[C@@H]1[C@@H]2CC[C@]2(C)C(=O)CC[C@@H]12 [5-androstene-3,17-dione]
kcat, isomerase substrate (purified human 3β-HSD1 [3]; [15]): 0.837 ± 0.0333 s⁻¹
kcat, isomerase substrate (purified human 3β-HSD2 [4]; [15]): 1.36 ± 0.1 s⁻¹
kcat, isomerase substrate [5, 15]: 2.18 ± 0.163 s⁻¹
Km ([5]; read-out: Km, isomerase substrate, 5-androstene-3,17-dione 20–100 μM, NADH 0.05 mM): 119 ± 5 µM

CC(=O)OC1CCC2C3CCC45OC4C(O)=C(C#N)CC5(C)C3CCC12C (stereo not drawn) [17β-acetoxy-trilostane]
Ki (purified human 3β-HSD1 [6]; DHEA 4.0 or 8.0 μM, NAD+ 0.2 mM, 27 °C, pH 7.4): 430 ± 30 nM
Ki [7, 16]: 390 ± 30 nM
Ki (purified human 3β-HSD2 [8]; [16]): 1590 ± 100 nM
mode of inhibition (purified human 3β-HSD2 [8]): non-competitive

C[C@]12CCC(=O)C=C1CC[C@@H]1[C@@H]2CC[C@]2(C)C(=O)CC[C@@H]12 [Androstenedione, androstenedione]
stimulation of cell growth [9]: stimulates the proliferation
stimulation of cell growth [10]: stimulates the proliferation

C[C@]12CC[C@H](O)CC1=CC[C@@H]1[C@@H]2CC[C@]2(C)C(=O)CC[C@@H]12 [DHEA, Dehydroepiandrosterone]
kcat, 3β-HSD substrate ([11]; DHEA 2–100 μM, NAD+ 0.2 mM, 27°C, pH 7.4): 0.158 ± 0.012 s⁻¹
fold higher affinity for substrate, P195R-2 vs wild-type 3β-HSD2 (Km) ([11]; ratio of Km values): 3.6 fold
Km ([11]; read-out: Km, 3β-HSD substrate, DHEA 2–100 μM, NAD+ 0.2 mM, 27°C, pH 7.4): 13.3 ± 2.5 µM
stimulation of cell growth [9]: stimulated
kcat, 3β-HSD substrate (purified human 3β-HSD2 [12]; DHEA 2–100 μM, NAD+ 0.2 mM): 0.115 ± 0.0083 s⁻¹
stimulation of cell growth [10]: stimulated
EC50 [13]: 5 nM
kcat, 3β-HSD substrate (purified human 3β-HSD1 [14]; DHEA 2–100 μM, NAD+ 0.2 mM): 0.055 ± 0.0033 s⁻¹

C[C@]12CC[C@H](OS(=O)(=O)O)CC1=CC[C@@H]1[C@@H]2CC[C@]2(C)C(=O)CC[C@@H]12 [DHEA-S, dehydroepiandrosterone-sulfate]
stimulation of cell growth [9]: stimulated
stimulation of cell growth [10]: stimulated

NC(=O)C1=CN([C@@H]2O[C@H](COP(=O)(O)OP(=O)(O)OC[C@H]3O[C@@H](n4cnc5c(N)ncnc54)[C@H](O)[C@@H]3O)[C@@H](O)[C@H]2O)C=CC1 [NADH]
kcat, isomerase cofactor (allosteric activator) (purified human 3β-HSD1 [3]; [17]): 0.75 ± 0.03 s⁻¹
Km (purified human 3β-HSD1 [3]; [18]): 4.6 ± 0.2 µM
kcat, isomerase cofactor (allosteric activator) (purified human 3β-HSD2 [4]; [17]): 1.65 ± 0.107 s⁻¹
Km (purified human 3β-HSD2 [4]; [18]): 12.6 ± 0.9 µM
kcat, isomerase cofactor (allosteric activator) [5, 17]: 1.49 ± 0.0967 s⁻¹
Km [5, 18]: 10 ± 0.2 µM

NC(=O)c1ccc[n+]([C@@H]2O[C@H](COP(=O)([O-])OP(=O)(O)OC[C@H]3O[C@@H](n4cnc5c(N)ncnc54)[C@H](O)[C@@H]3O)[C@@H](O)[C@H]2O)c1 [NAD^+]
kcat, 3β-HSD cofactor ([11]; NAD+ 10–200 μM, DHEA 100 μM, 27°C, pH 7.4): 0.153 ± 0.005 s⁻¹
Km ([11]; read-out: Km, 3β-HSD cofactor, NAD+ 10–200 μM, DHEA 100 μM, 27°C, pH 7.4): 56.4 ± 3.2 µM
kcat, 3β-HSD cofactor (purified human 3β-HSD2 [12]; NAD+ 10–200 μM, DHEA 100 μM): 0.118 ± 0.01 s⁻¹
Km (purified human 3β-HSD2 [12]; [19]): 86.3 ± 5.6 µM
kcat, 3β-HSD cofactor (purified human 3β-HSD1 [14]; NAD+ 10–200 μM, DHEA 100 μM): 0.0583 ± 0.0033 s⁻¹
Km (purified human 3β-HSD1 [14]; [19]): 34.1 ± 1.7 µM

C[C@]1(O)CC[C@H]2[C@@H]3CC[C@@]45O[C@]4(C)C(O)=C(C#N)C[C@]5(C)[C@H]3CC[C@@]21C [epostane]
ER-agonist activity (stimulation of proliferation) (MCF-7 cells): none of these compounds has ER-agonist activity
fold higher affinity, 3β-HSD1 cells relative to 3β-HSD2 cells (IC50) [2]: 12 fold

C[C@]12CC[C@@H]3c4ccc(O)cc4CC[C@H]3[C@@H]1CC[C@@H]2O [estradiol]
EC50 [9]: 0.32 nM
EC50 [10]: 0.24 nM

C[C@]12CC[C@@H]3c4ccc(O)cc4CC[C@H]3[C@@H]1CCC2=O [estrone]
EC50 [9]: 0.34 nM
EC50 [10]: 0.39 nM

N#Cc1ccc(C(c2ccc(C#N)cc2)n2cncn2)cc1 [letrozole]
ER-agonist activity (stimulation of proliferation) (MCF-7 cells): none of these compounds has ER-agonist activity

C[C@]12CC[C@H]3[C@@H](CC[C@@]45O[C@@H]4C(O)=C(C#N)C[C@]35C)[C@@H]1CC[C@@H]2O [trilostane, 2α-cyano-4α,5α-epoxy-17β-ol-androstane-3-one]
ER-agonist activity (stimulation of proliferation) (MCF-7 cells): none of these compounds has ER-agonist activity
Ki (purified human 3β-HSD1 [6]): 100 ± 10 nM
fold higher affinity for 3β-HSD1 than 3β-HSD2 (Ki) (purified human 3β-HSD1 [6]; purified enzymes): 16 fold
Ki [7]: 190 ± 20 nM
Ki (purified human 3β-HSD2 [8]): 1600 ± 100 nM
mode of inhibition (purified human 3β-HSD2 [8]): noncompetitively
fold higher affinity, 3β-HSD1 cells relative to 3β-HSD2 cells (IC50) [2]: 16 fold
